In patent US8906414B1, “Methods and compositions for improving bioavailability of epigallocatechin gallate (EGCG)” (University of South Florida, priority 2009, dated 2014):

Columns and labels:
[1] = Total EGCG concentration in blood and brain tissues after 4 weeks of treatment; assay type: in vivo; details: after 4 weeks of treatment at a maximum dose (300 mg/kg)
Water solubility of EGCG = assay type: physicochemical
SweAPP N2a cells = details: free EGCG (Rezai-Zadeh et al., 2005); cited from earlier work
[2] = oral dose of 800 mg/70 kg/day; cited from earlier work

## O=C(O[C@@H]1Cc2c(O)cc(O)cc2O[C@@H]1c1cc(O)c(O)c(O)c1)c1cc(O)c(O)c(O)c1 [EGCG, (−)-epigallocatechin-3-gallate]
[1]
  total EGCG concentration in blood and brain tissues: 1000 to 1300 ng/mL
Water solubility of EGCG
  water solubility: poorly water soluble
SweAPP N2a cells
  EGCG concentration necessary for promoting APP α-secretase cleavage: 1000 to 2000 ng/mL
[2]
  EGCG in human plasma: approximately 400 ng/ml
